{
  "source": "ChEMBL document CHEMBL1144356",
  "about": "(J Med Chem, 2005)",
  "key": {"[1]": {"target": "T1, Peroxisome proliferator-activated receptor alpha (Canis lupus familiaris, UniProt Q95N78)", "T1 sequence (Q95N78 whole entry)": "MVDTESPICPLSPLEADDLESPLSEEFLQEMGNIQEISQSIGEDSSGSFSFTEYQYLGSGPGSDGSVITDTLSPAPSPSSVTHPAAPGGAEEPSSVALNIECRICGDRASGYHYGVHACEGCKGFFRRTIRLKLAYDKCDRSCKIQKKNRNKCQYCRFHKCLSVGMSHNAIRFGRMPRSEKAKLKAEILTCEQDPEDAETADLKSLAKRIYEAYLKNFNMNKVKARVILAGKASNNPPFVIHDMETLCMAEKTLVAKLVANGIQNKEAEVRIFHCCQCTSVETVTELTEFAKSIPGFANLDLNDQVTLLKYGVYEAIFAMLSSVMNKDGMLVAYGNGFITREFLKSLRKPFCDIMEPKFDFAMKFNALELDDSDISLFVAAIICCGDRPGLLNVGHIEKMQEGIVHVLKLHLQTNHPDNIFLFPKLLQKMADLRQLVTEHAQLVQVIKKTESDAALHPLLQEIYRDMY", "test": "Effective concentration against canine PPAR-alpha in Gal4 transactivation assay"}, "[2]": {"target": "T2, Peroxisome proliferator-activated receptor gamma (Homo sapiens, UniProt P37231)", "T2 sequence (P37231 whole entry)": "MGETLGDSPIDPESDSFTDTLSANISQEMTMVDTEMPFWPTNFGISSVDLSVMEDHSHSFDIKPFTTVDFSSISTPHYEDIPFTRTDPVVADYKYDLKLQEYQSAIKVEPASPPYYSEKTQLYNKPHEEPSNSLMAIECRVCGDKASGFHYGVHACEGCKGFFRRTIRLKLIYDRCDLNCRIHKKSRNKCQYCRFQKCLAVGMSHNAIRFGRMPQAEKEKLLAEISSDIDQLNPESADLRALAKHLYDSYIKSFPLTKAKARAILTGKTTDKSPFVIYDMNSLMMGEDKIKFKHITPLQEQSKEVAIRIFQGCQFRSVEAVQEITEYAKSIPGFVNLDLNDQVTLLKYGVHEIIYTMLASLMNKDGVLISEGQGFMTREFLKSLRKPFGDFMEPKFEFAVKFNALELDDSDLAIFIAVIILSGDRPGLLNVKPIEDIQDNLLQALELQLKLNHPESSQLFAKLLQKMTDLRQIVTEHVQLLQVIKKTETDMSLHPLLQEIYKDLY", "test": "Effective concentration against human PPAR-gamma in Gal4 transactivation assay; 30% response at 3 uM", "type": "functional"}, "Canis familiaris [3]": {"system": "Canis familiaris", "test": "Effect on cholesterol lowering in male Beagle dog at an oral dose of 0.3 mkd for 15 days"}, "Canis familiaris [4]": {"system": "Canis familiaris", "test": "Effect on cholesterol lowering in male Beagle dog at an oral dose of 0.03 mkd for 3 days"}, "Canis familiaris [5]": {"system": "Canis familiaris", "test": "Effect on cholesterol lowering in male Beagle dog at an oral dose of 0.03 mkd for 15 days"}, "Canis familiaris [6]": {"system": "Canis familiaris", "test": "Effect on cholesterol lowering in male Beagle dog at an oral dose of 0.3 mkd for 10 days with 4 mkd simavastatin"}},
  "data": [
    {"smiles": "CC[C@@]1(C(=O)O)Cc2cc(OCCCOc3ccc(OC(F)(F)F)cc3Cl)ccc2O1", "values": [
      {"measurement": "EC50", "setting": "[1]", "value": 2, "unit": "nM"},
      {"measurement": "EC50", "setting": "[2]", "value": "> 3000", "unit": "nM"},
      {"measurement": "TC", "setting": "Canis familiaris [3]", "value": -24.2, "unit": "%"},
      {"measurement": "TC", "setting": "Canis familiaris [4]", "value": -6.5, "unit": "%"},
      {"measurement": "TC", "setting": "Canis familiaris [5]", "value": -24.3, "unit": "%"},
      {"measurement": "TC", "setting": "Canis familiaris [6]", "value": -36.9, "unit": "%"}
    ]}
  ]
}
